Results as given in patent US20100267561A1, “HERBICIDAL PYRIDAZINONE DERIVATIVES” (priority 2007, published 2010).

Experiments:
Test in all cases: Test B pre-/postemergence plant response
Format in all cases: in vivo
[1] = system: bermudagrass (Cynodon dactylon); details: for Bermudagrass plant response rating: 8 g ai/ha
How it was run: (§1)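 Preemergence and postemergence (plants 2-18 cm, 1- to 4-leaf stage) applications used test chemicals in a non-phytotoxic solvent with surfactant. Plants were held in a greenhouse 13 to 15 days, then rated visually against controls on a 0-100 scale (0 no effect, 100 complete control).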

[2] = system: surinam grass (Brachiaria decumbens); details: for Surinam Grass plant response rating: 8 g ai/ha
How it was run: as §1

[3] = system: lambsquarters (Chenopodium album); details: for Lambsquarters plant response rating: 8 g ai/ha
How it was run: as §1

[4] = system: wheat (Triticum aestivum); details: for Wheat plant response rating: 8 g ai/ha
How it was run: as §1

soybean (Glycine max) = details: for Soybean plant response rating: 8 g ai/ha
How it was run: as §1

[5] = system: common ragweed (Ambrosia elation); details: for Ragweed plant response rating: 8 g ai/ha
How it was run: as §1

[6] = system: morningglory (Ipomoea coccinea); details: for Morningglory plant response rating: 8 g ai/ha
How it was run: as §1

[7] = system: common (oilseed) sunflower (Helianthus annuus); details: Preemergence
How it was run: as §1

[8] = system: velvetleaf (Abutilon theophrasti); details: for Velvetleaf plant response rating: 8 g ai/ha
How it was run: as §1

[9] = system: cocklebur (Xanthium strumarium); details: for Cocklebur plant response rating: 8 g ai/ha
How it was run: as §1

[10] = system: johnsongrass (Sorghum halepense); details: for Johnsongrass plant response rating: 8 g ai/ha
How it was run: as §1

kochia (Kochia scoparia) = details: for Kochia plant response rating: 8 g ai/ha
How it was run: as §1

[11] = system: goosegrass (Eleusine indica); details: for Goosegrass plant response rating: 8 g ai/ha
How it was run: as §1

[12] = system: Italian ryegrass (Lolium multiflorum); details: for Ryegrass, Italian plant response rating: 8 g ai/ha
How it was run: as §1

[13] = Postemergence, 16 g ai/ha, scale 0 to 100
[14] = Postemergence, 31 g ai/ha, scale 0 to 100, 0 no effect, 100 complete control
[15] = Postemergence, 62 g ai/ha, scale 0 to 100, 0 no effect, 100 complete control
[16] = Preemergence, 16 g ai/ha, scale 0 to 100 (0 no effect, 100 complete control)
[17] = Preemergence, 31 g ai/ha, 0 to 100 scale, 0 no effect, 100 complete control
[18] = Preemergence, 62 g ai/ha, scale 0 to 100
[19] = Preemergence, 31 g ai/ha, scale 0 to 100 (0 no effect, 100 complete control)
[20] = Preemergence, 62 g ai/ha, 0 to 100 scale, 0 no effect, 100 complete control

CCc1cc(-c2ccc(Cl)cc2)nn1-c1c(OC(=O)C(C)(C)C)cnn(C)c1=O [Compound 40]
Bermudagrass plant response rating ([1]; postemergence, 0-100 scale): 0 | Plant response rating, Bermudagrass [1, 13]: 60 | Plant response rating, Bermudagrass [1, 14]: 65 | Plant response rating, Bermudagrass [1, 15]: 98 | Bermudagrass plant response rating ([1]; Preemergence, scale 0 to 100 (0 no effect, 100 complete control)): 0 | Plant response rating, Bermudagrass [1, 16]: 90 | Plant response rating, Bermudagrass [1, 17]: 100 | Plant response rating, Bermudagrass [1, 18]: 100 | Surinam Grass plant response rating ([2]; postemergence, 0-100 scale): 98 | Plant response rating, Surinam Grass [2, 13]: 100 | Plant response rating, Surinam Grass [2, 15]: 100 | Plant response rating, Surinam Grass [2, 16]: 100 | Plant response rating, Surinam Grass [2, 19]: 100 | Plant response rating, Surinam Grass [2, 20]: 100 | Surinam Grass plant response rating ([2]; Preemergence, scale 0 to 100): 80 | Lambsquarters plant response rating ([3]; postemergence, 0-100 scale): 0 | Plant response rating, Lambsquarters [3, 13]: 0 | Plant response rating, Lambsquarters [3, 14]: 0 | Plant response rating, Lambsquarters [3, 15]: 0 | Plant response rating, Lambsquarters [3, 16]: 0 | Plant response rating, Lambsquarters [3, 17]: 0 | Plant response rating, Lambsquarters [3, 18]: 0 | Lambsquarters plant response rating ([3]; Preemergence, scale 0 to 100): 0 | Wheat plant response rating ([4]; postemergence, 0-100 scale): 70 | Plant response rating, Wheat [4, 13]: 70 | Plant response rating, Wheat [4, 15]: 100 | Plant response rating, Wheat [4, 16]: 60 | Plant response rating, Wheat [4, 19]: 60 | Plant response rating, Wheat [4, 20]: 90 | Wheat plant response rating ([4]; Preemergence, scale 0 to 100): 5 | Soybean plant response rating (soybean (Glycine max); postemergence, 0-100 scale): 0 | Plant response rating, Soybean (soybean (Glycine max); [13]): 0 | Plant response rating, Soybean (soybean (Glycine max); [15]): 0 | Plant response rating, Soybean (soybean (Glycine max); [16]): 0 | Plant response rating, Soybean (soybean (Glycine max); [19]): 0 | Plant response rating, Soybean (soybean (Glycine max); [18]): 0 | Soybean plant response rating (soybean (Glycine max); Preemergence, scale 0 to 100): 0 | Ragweed plant response rating ([5]; postemergence, 0-100 scale): 0 | Plant response rating, Ragweed [5, 13]: 0 | Plant response rating, Ragweed [5, 14]: 0 | Plant response rating, Ragweed [5, 15]: 0 | Plant response rating, Ragweed [5, 16]: 0 | Plant response rating, Ragweed [5, 19]: 0 | Plant response rating, Ragweed [5, 18]: 0 | Ragweed plant response rating ([5]; Preemergence, scale 0 to 100): 0 | Morningglory plant response rating ([6]; postemergence, 0-100 scale): 0 | Plant response rating, Morningglory [6, 13]: 0 | Plant response rating, Morningglory [6, 14]: 0 | Plant response rating, Morningglory [6, 15]: 0 | Plant response rating, Morningglory [6, 16]: 0 | Plant response rating, Morningglory [6, 19]: 0 | Plant response rating, Morningglory [6, 18]: 0 | Morningglory plant response rating ([6]; Preemergence, scale 0 to 100): 0 | Plant response rating, Sunflower ([7]; 16 g ai/ha, scale 0 to 100 (0 no effect, 100 complete control)): 0 | Plant response rating, Sunflower ([7]; 31 g ai/ha, scale 0 to 100 (0 no effect, 100 complete control)): 0 | Plant response rating, Sunflower ([7]; 62 g ai/ha, scale 0 to 100): 0 | Sunflower plant response rating ([7]; 8 g ai/ha, scale 0 to 100): 0 | Velvetleaf plant response rating ([8]; postemergence, 0-100 scale): 0 | Plant response rating, Velvetleaf [8, 13]: 0 | Plant response rating, Velvetleaf [8, 15]: 0 | Plant response rating, Velvetleaf [8, 16]: 0 | Plant response rating, Velvetleaf [8, 19]: 0 | Plant response rating, Velvetleaf [8, 20]: 0 | Velvetleaf plant response rating ([8]; Preemergence, scale 0 to 100): 0 | Cocklebur plant response rating ([9]; postemergence, 0-100 scale): 0 | Plant response rating, Cocklebur [9, 13]: 0 | Plant response rating, Cocklebur [9, 14]: 0 | Plant response rating, Cocklebur [9, 15]: 0 | Plant response rating, Cocklebur [9, 16]: 0 | Plant response rating, Cocklebur [9, 17]: 0 | Plant response rating, Cocklebur [9, 18]: 0 | Cocklebur plant response rating ([9]; Preemergence, scale 0 to 100): 0 | Johnsongrass plant response rating ([10]; postemergence, 0-100 scale): 0 | Plant response rating, Johnsongrass [10, 13]: 0 | Plant response rating, Johnsongrass [10, 14]: 98 | Plant response rating, Johnsongrass [10, 15]: 100 | Plant response rating, Johnsongrass [10, 16]: 95 | Plant response rating, Johnsongrass [10, 17]: 98 | Plant response rating, Johnsongrass [10, 18]: 98 | Johnsongrass plant response rating ([10]; Preemergence, scale 0 to 100): 90 | Kochia plant response rating (kochia (Kochia scoparia); postemergence, 0-100 scale): 0 | Plant response rating, Kochia (kochia (Kochia scoparia); [13]): 0 | Plant response rating, Kochia (kochia (Kochia scoparia); [14]): 0 | Plant response rating, Kochia (kochia (Kochia scoparia); [15]): 0 | Plant response rating, Kochia (kochia (Kochia scoparia); [16]): 0 | Plant response rating, Kochia (kochia (Kochia scoparia); [17]): 0 | Plant response rating, Kochia (kochia (Kochia scoparia); [18]): 0 | Kochia plant response rating (kochia (Kochia scoparia); Preemergence, scale 0 to 100): 0 | Goosegrass plant response rating ([11]; postemergence, 0-100 scale): 60 | Plant response rating, Goosegrass [11, 13]: 75 | Plant response rating, Goosegrass [11, 14]: 80 | Plant response rating, Goosegrass [11, 15]: 100 | Plant response rating, Goosegrass [11, 16]: 100 | Plant response rating, Goosegrass [11, 17]: 100 | Plant response rating, Goosegrass [11, 18]: 100 | Goosegrass plant response rating ([11]; Preemergence, scale 0 to 100): 98 | Ryegrass, Italian plant response rating ([12]; postemergence, 0-100 scale): 80 | Plant response rating, Ryegrass, Italian [12, 13]: 100 | Plant response rating, Ryegrass, Italian [12, 14]: 100 | Plant response rating, Ryegrass, Italian [12, 15]: 100 | Plant response rating, Ryegrass, Italian [12, 16]: 95 | Plant response rating, Ryegrass, Italian [12, 19]: 95 | Plant response rating, Ryegrass, Italian [12, 18]: 100 | Ryegrass, Italian plant response rating ([12]; Preemergence, scale 0 to 100): 80
